Assay results published in ChEMBL document CHEMBL5113517, “Structure-Based Design, Optimization, and Evaluation of Potent Stabilized Peptide Inhibitors Disrupting MTDH and SND1 Interaction” (J Med Chem, 2022).
Calls of active or inactive are those of the source. The calls are words filed in the database; no cut-off is given here. Peptide text beside a SMILES is read from it.

Key:
MDA-MB-231 [1] = assay: Cell cycle arrest in human MDA-MB-231 cells assessed as accumulation at G2/M phase at 50 uM measured after 48 hrs by flow cytometric analysis flow cytometry analysis (reference value: 15.84 %); assay type: functional
MDA-MB-231 [2] = assay: Cell cycle arrest in human MDA-MB-231 cells assessed as accumulation at G0/G1 phase at 100 uM measured after 48 hrs by propidium iodide based flow cytometry analysis (reference value: 57.81 %); assay type: functional
[3] = Drug uptake in human MDA-MB-231 cells assessed as increase in colocalization at 10 uM by confocal microscopy; assay type: ADME, cell-based; settings: mda-mb-231, 10 µM
MDA-MB-231 [4] = assay: Cell cycle arrest in human MDA-MB-231 cells assessed as accumulation at S phase at 50 uM measured after 48 hrs by flow cytometric analysis flow cytometry analysis (reference value: 25.88%); assay type: functional
[5] = Binding affinity to MTDH /His-SND1 (unknown origin) expressed in Escherichia coli BL21(DE3) assessed as dissociation constant by fluorescence polarization assay; design: species or system Homo sapiens
MDA-MB-231 [6] = assay: Cell cycle arrest in human MDA-MB-231 cells assessed as accumulation at S phase at 100 uM measured after 48 hrs by flow cytometric analysis flow cytometry analysis (reference value: 25.81%); assay type: functional
[7] = Drug uptake in human MDA-MB-231 cells assessed as increase in cell penetration at 10 uM incubated for 12 hrs by flow cytometry method; assay type: ADME, cell-based; settings: mda-mb-231, 12 h
MDA-MB-231 [8] = assay: Cell cycle arrest in human MDA-MB-231 cells assessed as accumulation at G2/M phase at 100 uM measured after 48 hrs by flow cytometric analysis flow cytometry analysis (reference value: 16.38 %); assay type: functional
MDA-MB-231 [9] = assay: Cell cycle arrest in human MDA-MB-231 cells assessed as accumulation at G0/G1 phase at 50 uM measured after 48 hrs by flow cytometric analysis flow cytometry analysis (reference value: 58.28 %); assay type: functional
MDA-MB-231 [10] = assay: Antiproliferative activity against human MDA-MB-231 cells assessed as growth inhibition at 100 uM in presence of paclitaxel; assay type: functional, cell-based
MDA-MB-468 [11] = assay: Cytotoxicity against human MDA-MB-468 cells assessed as reduction in cell viability incubated for 72 hrs by CCK8 assay; assay type: functional, cell-based
MDA-MB-231 [12] = assay: Cytotoxicity against human MDA-MB-231 cells assessed as reduction in cell viability at 6.25 to 200 uM incubated for 72 hrs by CCK8 assay; assay type: functional, cell-based; settings: dose 6.25-200 µM
Homo sapiens = species: Homo sapiens; assay: Inhibition of GST-tagged MTDH (364 ro 582 residues)/His-tagged SND1 (16 to 339 residues) (unknown origin) interaction measured after 12 hrs by pull down assay
MCF-10A = assay: Cytotoxicity against human MCF-10A cells assessed as reduction in cell viability at 6.25 to 200 uM incubated for 72 hrs by CCK8 assay; assay type: toxicity, cell-based; settings: dose 6.25-200 µM
MDA-MB-468 [13] = assay: Cytotoxicity against human MDA-MB-468 cells assessed as reduction in cell viability at 6.25 to 200 uM incubated for 72 hrs by CCK8 assay; assay type: functional, cell-based; settings: dose 6.25-200 µM
[14] = Toxicity in mouse RBC assessed as induction of hemolysis at 200 uM measured after 1 hr by microplate reader assay; assay type: cell-based; settings: erythrocyte
MDA-MB-231 [15] = assay: Inhibition of cell migration in human MDA-MB-231 cells measured after 24 to 48 hrs by wound healing assay; assay type: functional, cell-based; settings: time 24-48 hrs
MDA-MB-231 [16] = assay: Inhibition of GST-tagged MTDH (364 ro 582 residues)/His-tagged SND1 (16 to 339 residues) interaction in human MDA-MB-231 cells measured after 12 hrs by co-immunoprecipitation assay; assay type: cell-based
[17] = Stability of the compound in mouse serum measured after 3 to 7 days by HPLC analysis; assay type: ADME, cell-free; settings: time 3-7 day
MDA-MB-231 [18] = assay: Cytotoxicity against human MDA-MB-231 cells assessed as reduction in cell viability incubated for 72 hrs by CCK8 assay; assay type: functional, cell-based
MDA-MB-231 [19] = assay: Cytotoxicity against human MDA-MB-231 cells assessed as reduction in cell viability at 100 uM incubated for 72 hrs by CCK8 assay; assay type: functional

Compound | Activity (MDA-MB-231 [1]) | Activity (MDA-MB-231 [2]) | Drug uptake [3] | Activity (MDA-MB-231 [4]) | Kd [5] | Activity (MDA-MB-231 [6]) | Drug uptake [7] | Activity (MDA-MB-231 [8]) | Activity (MDA-MB-231 [9]) | further results
CC(C)[C@H](NC(=O)[C@H](Cc1c[nH]c2ccccc12)NC(=O)[C@H](CC(N)=O)NC(=O)CNC(=O)[C@H](Cc1c[nH]c2ccccc12)NC(=O)[C@H](CCC(=O)O)NC(=O)[C@H](CCC(=O)O)NC(=O)[C@H](C)NC(=O)[C@@H]1CCCN1C(=O)[C@H](C)NC(=O)[C@H](CC(N)=O)NC(=O)[C@H](Cc1c[nH]c2ccccc12)NC(=O)[C@@H](N)CC(=O)O)C(=O)N[C@@H](CC(=O)O)C(=O)N[C@@H](CCC(=O)O)C(=O)O (H-DWNAPAEEWGNWVDE-OH) | 16.7% | 61.79% | Active | 22.86% | 56.5 nM | 22.66% | Active | 15.55% | 60.42% | –
CC(C)[C@H](NC(=O)[C@H](Cc1c[nH]c2ccccc12)NC(=O)[C@H](CC(N)=O)NC(=O)CNC(=O)[C@H](Cc1c[nH]c2ccccc12)NC(=O)[C@H](CCC(=O)O)NC(=O)[C@H](CCC(=O)O)NC(=O)[C@@H]1CNC(=O)[C@@H](NC(=O)[C@H](Cc2c[nH]c3ccccc23)NC(=O)[C@@H](N)CC(=O)O)CC(=O)N[C@@H](C)C(=O)N2CCC[C@H]2C(=O)N1)C(=O)N[C@@H](CC(=O)O)C(=O)N[C@@H](CCC(=O)O)C(N)=O | 11.55% | 81.56% | Active | 18.5% | 74.1 nM | 8.32% | Active | 10.12% | 69.94% | Activity (MDA-MB-231 [10]): Active; Activity (MDA-MB-468 [11]): Active; Activity (MDA-MB-231 [12]): Active; inhibition (Homo sapiens): Active; Activity (MCF-10A): Non-Toxic; Activity (MDA-MB-468 [13]): Active; Activity [14]: Non-Toxic; inhibition (MDA-MB-231 [15]): Active; inhibition (MDA-MB-231 [16]): Active; Stability [17]: Stable; Activity (MDA-MB-231 [18]): Active; Activity (MDA-MB-231 [19]): 60%
